Measured values reported in ChEMBL document CHEMBL3804817, “Development of novel bis-naphthalimide derivatives and their anticancer properties” (Medchemcomm, 2016).
The source made the active and inactive calls. The calls are words filed in the database; no cut-off is given here.

Legend:
[1] = Cytotoxicity against human SGC7901 cells after 48 hrs by MTT assay; format: functional, cell-based; details: SGC-7901, 48 h
A549 = assay: Cytotoxicity against human A549 cells after 48 hrs by MTT assay; format: functional, cell-based; details: A549, 48 h
MCF7 = assay: Cytotoxicity against human MCF7 cells after 48 hrs by MTT assay; format: functional, cell-based; details: MCF7, 48 h
HeLa [2] = assay: Cytotoxicity against human HeLa cells after 48 hrs by MTT assay; format: functional, cell-based
HeLa [3] = assay: Induction of apoptosis in human HeLa cells assessed as late apoptotic cells at 5 uM by Annexin V-FITC/propidium iodide staining-based flow cytometry (reference value: 0.02%); format: functional
HeLa [4] = assay: Induction of apoptosis in human HeLa cells assessed as early apoptotic cells at 1 uM by Annexin V-FITC/propidium iodide staining-based flow cytometry (reference value: 0.05%); format: functional
Calf thymus DNA [5] = assay: Induction of DNA intercalation of calf thymus DNA at 1 x 10^-5 M measured at 530 nm by fluorescence spectrophotometry; format: nucleic-acid assay; details: Bos taurus
Calf thymus DNA [6] = assay: Induction of DNA intercalation of calf thymus DNA assessed as increase in intensity of positive band at 275 nm at 2 x 10^-5 M by circular dichroism spectroscopy; format: nucleic-acid assay; details: Bos taurus
HeLa [7] = assay: Induction of apoptosis in human HeLa cells assessed as early apoptotic cells at 5 uM by Annexin V-FITC/propidium iodide staining-based flow cytometry (reference value: 0.05%); format: functional
Mus musculus [8] = assay: Cardiotoxicity in Balb/c mouse assessed as increase in CK level at 5 to 20 mg/kg, iv measured after 24 hrs; format: toxicity, organism-based; details: in vivo
Calf thymus DNA [9] = assay: Induction of DNA intercalation of calf thymus DNA assessed as increase in intensity of negative band at 245 nm at 2 x 10^-5 M by circular dichroism spectroscopy; format: nucleic-acid assay; details: Bos taurus
Mus musculus [10] = assay: Toxicity in Balb/c mouse assessed as increase in number of platelets at 5 to 20 mg/kg, iv measured after 24 to 96 hrs; format: organism-based; details: in vivo
Mus musculus [11] = assay: Cardiotoxicity in Balb/c mouse assessed as increase in AST level at 5 to 20 mg/kg, iv measured after 24 hrs; format: toxicity, organism-based; details: in vivo
Calf thymus DNA [12] = assay: Induction of DNA intercalation of calf thymus DNA assessed as hypsochromic shift by fluorescence spectrophotometry (reference value: 530 nanometer); format: nucleic-acid assay; details: Bos taurus
Mus musculus [13] = assay: Cardiotoxicity in Balb/c mouse assessed as increase in LDH level at 5 to 20 mg/kg, iv measured after 24 hrs; format: toxicity, organism-based; details: in vivo
HeLa [14] = assay: Induction of apoptosis in human HeLa cells assessed as early apoptotic cells at 2.5 uM by Annexin V-FITC/propidium iodide staining-based flow cytometry (reference value: 0.05%); format: functional
HeLa [15] = assay: Cell cycle arrest in human HeLa cells assessed as accumulation at G1/G0 phase at 1 to 10 uM after 48 hrs by flow cytometry; format: functional
HeLa [16] = assay: Binding affinity to DNA in human HeLa cells at 2 uM after 12 hrs by confocal microscopy; format: cell-based
HeLa [17] = assay: Induction of apoptosis in human HeLa cells assessed as late apoptotic cells at 2.5 uM by Annexin V-FITC/propidium iodide staining-based flow cytometry (reference value: 0.02%); format: functional
HeLa [18] = assay: Induction of apoptosis in human HeLa cells assessed as early apoptotic cells at 10 uM by Annexin V-FITC/propidium iodide staining-based flow cytometry (reference value: 0.05%); format: functional
Calf thymus DNA [19] = assay: Induction of DNA intercalation of calf thymus DNA assessed as increase in fluorescence intensity by fluorescence spectrophotometry; format: nucleic-acid assay; details: Bos taurus
HeLa [20] = assay: Induction of lysosome membrane permeabilization in human HeLa cells by […] (reference value: 1.69%); format: functional
Calf thymus DNA [21] = assay: Induction of DNA intercalation of calf thymus DNA assessed as reduction in intensity of absorption using 0 to 6 x 10^-5 M calf thymus DNA by UV spectrophotometry; format: nucleic-acid assay; details: Bos taurus
HeLa [22] = assay: Cell cycle arrest in human HeLa cells assessed as accumulation at S phase at 1 to 10 uM after 48 hrs by flow cytometry; format: functional
Mus musculus [23] = assay: Toxicity in Balb/c mouse assessed as change in RBC at 5 to 20 mg/kg, iv measured after 24 to 96 hrs; format: organism-based; details: in vivo
HeLa [24] = assay: Induction of apoptosis in human HeLa cells assessed as late apoptotic cells at 10 uM by Annexin V-FITC/propidium iodide staining-based flow cytometry (reference value: 0.02%); format: functional
Calf thymus DNA [25] = assay: Induction of DNA intercalation of calf thymus DNA assessed as binding constant by fluorescence spectrophotometry; format: nucleic-acid assay; details: Bos taurus
HeLa [26] = assay: Cell cycle arrest in human HeLa cells assessed as accumulation at G2/M phase at 1 to 10 uM after 48 hrs by flow cytometry; format: functional
Calf thymus DNA [27] = assay: Induction of DNA intercalation of calf thymus DNA assessed as increase in intensity of absorption using > 6 x 10^-5 M calf thymus DNA by UV spectrophotometry; format: nucleic-acid assay; details: Bos taurus
Calf thymus DNA [28] = assay: Induction of DNA intercalation of calf thymus DNA assessed as change in melting temperature at 5 x 10^-6 M by thermal denaturation analysis; format: nucleic-acid assay; details: Bos taurus
Mus musculus [29] = assay: Toxicity in Balb/c mouse assessed as decrease in number of WBC at 5 to 20 mg/kg, iv measured after 24 to 96 hrs; format: organism-based; details: in vivo
HeLa [30] = assay: Induction of apoptosis in human HeLa cells assessed as late apoptotic cells at 1 uM by Annexin V-FITC/propidium iodide staining-based flow cytometry (reference value: 0.02%); format: functional
Calf thymus DNA [31] = assay: Induction of DNA intercalation of calf thymus DNA measured at 320 to 520 nm at 2 x 10^-5 M by circular dichroism spectroscopy; format: nucleic-acid assay; details: Bos taurus
HeLa [32] = assay: Cell cycle arrest in human HeLa cells assessed as increase in accumulation at S phase by flow cytometry; format: functional, cell-based
HeLa [33] = assay: Cell cycle arrest in human HeLa cells assessed as decrease in accumulation at G0/G1 phase phase by flow cytometry; format: functional, cell-based

CN(CCCN1C(=O)c2cccc3c(N4CCC[C@@H]4CO)ccc(c23)C1=O)CCCN1C(=O)c2cccc3c(N4CCC[C@@H]4CO)ccc(c23)C1=O
IC50 [1]: 4.46 µM | IC50 (A549): 4.71 µM | IC50 (MCF7): > 50 µM | IC50 (HeLa [2]): > 50 µM

CN(CCCN1C(=O)c2cccc3c(N4CC[C@H](O)C4)ccc(c23)C1=O)CCCN1C(=O)c2cccc3c(N4CC[C@H](O)C4)ccc(c23)C1=O
IC50 [1]: 2.47 µM | IC50 (A549): 0.6 µM | IC50 (MCF7): 14 µM | IC50 (HeLa [2]): 1.05 µM

CN(CCCN1C(=O)c2cccc3c(N4CCC[C@H]4CO)ccc(c23)C1=O)CCCN1C(=O)c2cccc3c(N4CCC[C@H]4CO)ccc(c23)C1=O
IC50 [1]: 2.3 µM | IC50 (A549): 3.05 µM | IC50 (MCF7): 9.07 µM | IC50 (HeLa [2]): > 50 µM

CN(CCCN1C(=O)c2cccc3c(N4CCN(CCO)CC4)ccc(c23)C1=O)CCCN1C(=O)c2cccc3c(N4CCN(CCO)CC4)ccc(c23)C1=O
Activity (HeLa [3]): 10.4% | Activity (HeLa [4]): 11.72% | Activity (Calf thymus DNA [5]): Active | Activity (Calf thymus DNA [6]): Active | Activity (HeLa [7]): 16.41% | Activity (Mus musculus [8]): Non-toxic | Activity (Calf thymus DNA [9]): Active | Activity (Mus musculus [10]): Non-toxic | Activity (Mus musculus [11]): Non-toxic | Activity (Calf thymus DNA [12]): 520 nm | Activity (Mus musculus [13]): Non-toxic | Activity (HeLa [14]): 15.9% | Activity (HeLa [15]): 57.79% | Activity (HeLa [16]): Active | Activity (HeLa [17]): 3.21% | Activity (HeLa [18]): 41.51% | Activity (Calf thymus DNA [19]): Active | Activity (HeLa [20]): 99.65% | IC50 [1]: 0.88 µM | Activity (Calf thymus DNA [21]): Active | Activity (HeLa [22]): 29.79% | Activity (Mus musculus [23]): Non-toxic | Activity (HeLa [24]): 51.22% | K (Calf thymus DNA [25]): 1.2 ×10⁵ /M | Activity (HeLa [26]): 3.1% | Activity (Calf thymus DNA [27]): Active | ΔTm (Calf thymus DNA [28]): 8 °C | IC50 (A549): 1.21 µM | Activity (Mus musculus [29]): Non-toxic | Activity (HeLa [30]): 2.09% | IC50 (MCF7): 2.94 µM | Activity (Calf thymus DNA [31]): Active | IC50 (HeLa [2]): 2.31 µM

CN(CCCN1C(=O)c2cccc3c(N4CC[C@@H](O)C4)ccc(c23)C1=O)CCCN1C(=O)c2cccc3c(N4CC[C@@H](O)C4)ccc(c23)C1=O
IC50 [1]: 23.2 µM | IC50 (A549): 1.59 µM | IC50 (MCF7): 32.9 µM | IC50 (HeLa [2]): 3.65 µM

CN(C)CCN1C(=O)c2cccc3cc(N)cc(c23)C1=O [AMONAFIDE]
Activity (HeLa [32]): Dose-dependent effect | IC50 [1]: 5.32 µM | IC50 (A549): 1.59 µM | inhibition (HeLa [33]): Dose-dependent effect | IC50 (MCF7): 8.02 µM | IC50 (HeLa [2]): 4.36 µM

CN(CCCN1C(=O)c2cccc3c(N4CCC(CCO)CC4)ccc(c23)C1=O)CCCN1C(=O)c2cccc3c(N4CCC(CCO)CC4)ccc(c23)C1=O
IC50 [1]: 3.63 µM | IC50 (A549): 3.2 µM | IC50 (MCF7): > 50 µM | IC50 (HeLa [2]): > 50 µM
